US12343326B2, “Psychoactive medicines and their use for treating psychiatric and neurological conditions and disorders” (Transcend Therapeutics, Inc., priority 2021, dated 2025)
Like-named read-outs stand apart in the source and are kept apart here.

How the values were obtained:
Assay in all cases: β-arrestin based GPCR screen (PathHunter / GPCRmax), agonist mode
Type in all cases: cell-based
Parameters in all cases: host or cells: PathHunter cell lines
168 GPCRs [1] = biological target: 168 GPCRs (Homo sapiens, UniProt O43614)
Chain of 168 GPCRs (Homo sapiens, UniProt O43614) (O43614 whole entry): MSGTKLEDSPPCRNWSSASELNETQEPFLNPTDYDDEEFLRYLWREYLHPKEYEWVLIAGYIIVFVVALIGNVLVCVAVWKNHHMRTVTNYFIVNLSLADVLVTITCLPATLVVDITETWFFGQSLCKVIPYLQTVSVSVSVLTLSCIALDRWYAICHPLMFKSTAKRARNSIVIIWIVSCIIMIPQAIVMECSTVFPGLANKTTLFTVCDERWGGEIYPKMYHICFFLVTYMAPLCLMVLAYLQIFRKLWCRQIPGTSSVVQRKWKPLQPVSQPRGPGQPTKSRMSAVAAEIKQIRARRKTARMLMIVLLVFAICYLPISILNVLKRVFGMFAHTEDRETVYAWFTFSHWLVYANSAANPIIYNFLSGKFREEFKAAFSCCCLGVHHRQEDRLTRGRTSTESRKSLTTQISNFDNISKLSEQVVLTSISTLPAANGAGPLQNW
Description: (§1) For agonist determination, cells were incubated with sample to induce response. […] Vehicle concentration was 1%.

168 GPCRs [2] = biological target: 168 GPCRs (Homo sapiens, UniProt P08172); conditions: CHRM2, Agonist
Chain of 168 GPCRs (Homo sapiens, UniProt P08172) (P08172 whole entry): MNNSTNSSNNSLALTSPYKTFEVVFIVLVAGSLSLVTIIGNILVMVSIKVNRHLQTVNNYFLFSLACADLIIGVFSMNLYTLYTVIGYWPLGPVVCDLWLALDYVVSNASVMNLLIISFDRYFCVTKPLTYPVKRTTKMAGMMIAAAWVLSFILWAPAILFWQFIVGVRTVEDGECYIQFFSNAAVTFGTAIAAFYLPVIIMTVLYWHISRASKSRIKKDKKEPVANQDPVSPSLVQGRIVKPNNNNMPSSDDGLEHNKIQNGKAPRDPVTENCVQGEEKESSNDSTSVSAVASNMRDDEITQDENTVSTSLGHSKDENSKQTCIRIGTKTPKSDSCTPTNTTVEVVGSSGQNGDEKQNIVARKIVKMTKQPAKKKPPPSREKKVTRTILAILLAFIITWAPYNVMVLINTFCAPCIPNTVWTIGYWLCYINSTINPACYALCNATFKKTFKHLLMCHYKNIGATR
Description: as §1

168 GPCRs [3] = biological target: 168 GPCRs (Homo sapiens, UniProt P08913); conditions: ADRA2A, Agonist
Chain of 168 GPCRs (Homo sapiens, UniProt P08913) (P08913 whole entry): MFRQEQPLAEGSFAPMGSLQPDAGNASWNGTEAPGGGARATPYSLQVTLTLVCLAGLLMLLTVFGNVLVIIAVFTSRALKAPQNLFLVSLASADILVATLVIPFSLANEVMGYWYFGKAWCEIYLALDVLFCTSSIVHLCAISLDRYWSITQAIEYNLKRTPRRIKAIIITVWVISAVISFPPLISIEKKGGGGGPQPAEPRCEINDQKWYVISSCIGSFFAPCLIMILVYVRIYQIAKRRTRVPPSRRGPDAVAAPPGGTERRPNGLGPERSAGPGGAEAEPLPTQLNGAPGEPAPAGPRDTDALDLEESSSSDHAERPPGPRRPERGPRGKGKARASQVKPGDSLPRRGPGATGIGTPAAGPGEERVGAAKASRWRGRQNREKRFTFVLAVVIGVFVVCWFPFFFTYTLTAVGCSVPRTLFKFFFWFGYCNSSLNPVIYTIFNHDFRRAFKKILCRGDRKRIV
Description: as §1

168 GPCRs [4] = biological target: 168 GPCRs (Homo sapiens, UniProt P18825); conditions: ADRA2C, Agonist
Chain of 168 GPCRs (Homo sapiens, UniProt P18825) (P18825 whole entry): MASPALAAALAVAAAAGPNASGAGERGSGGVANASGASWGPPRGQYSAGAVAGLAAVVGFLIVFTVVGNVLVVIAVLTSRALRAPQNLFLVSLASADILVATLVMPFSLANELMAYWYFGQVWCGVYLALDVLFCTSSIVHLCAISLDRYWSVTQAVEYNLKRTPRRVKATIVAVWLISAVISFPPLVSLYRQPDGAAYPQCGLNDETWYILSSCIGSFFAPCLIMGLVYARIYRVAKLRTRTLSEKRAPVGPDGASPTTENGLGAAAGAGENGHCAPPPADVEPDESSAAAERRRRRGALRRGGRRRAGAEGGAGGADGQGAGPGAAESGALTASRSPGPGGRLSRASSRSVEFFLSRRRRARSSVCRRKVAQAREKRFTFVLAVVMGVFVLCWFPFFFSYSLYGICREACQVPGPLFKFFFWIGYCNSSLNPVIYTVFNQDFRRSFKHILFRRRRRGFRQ
Description: as §1

168 GPCRs [5] = biological target: 168 GPCRs (Homo sapiens, UniProt P21918)
Description: as §1

168 GPCRs [6] = biological target: 168 GPCRs (Homo sapiens, UniProt P33032); conditions: MC5R
Chain of 168 GPCRs (Homo sapiens, UniProt P33032) (P33032 whole entry): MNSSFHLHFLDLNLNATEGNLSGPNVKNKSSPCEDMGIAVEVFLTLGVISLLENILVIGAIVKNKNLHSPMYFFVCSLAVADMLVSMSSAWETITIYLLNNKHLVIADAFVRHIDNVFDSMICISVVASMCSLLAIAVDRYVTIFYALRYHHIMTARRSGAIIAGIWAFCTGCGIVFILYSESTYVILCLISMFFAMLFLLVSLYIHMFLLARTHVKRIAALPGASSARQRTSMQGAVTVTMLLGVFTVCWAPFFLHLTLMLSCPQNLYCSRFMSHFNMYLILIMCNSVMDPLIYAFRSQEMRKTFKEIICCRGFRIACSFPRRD
Description: as §1

168 GPCRs [7] = biological target: 168 GPCRs (Homo sapiens, UniProt P34981); conditions: TRHR
Chain of 168 GPCRs (Homo sapiens, UniProt P34981) (P34981 whole entry): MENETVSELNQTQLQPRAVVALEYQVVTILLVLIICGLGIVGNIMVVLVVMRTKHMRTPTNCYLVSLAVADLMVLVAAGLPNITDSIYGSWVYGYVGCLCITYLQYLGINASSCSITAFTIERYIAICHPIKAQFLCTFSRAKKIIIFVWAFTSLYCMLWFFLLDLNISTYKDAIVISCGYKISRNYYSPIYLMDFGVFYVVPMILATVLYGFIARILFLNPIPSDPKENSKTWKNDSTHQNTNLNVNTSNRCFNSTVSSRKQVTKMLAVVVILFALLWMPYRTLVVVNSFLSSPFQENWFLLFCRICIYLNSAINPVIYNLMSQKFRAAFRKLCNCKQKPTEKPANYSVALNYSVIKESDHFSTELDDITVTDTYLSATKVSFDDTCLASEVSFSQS
Description: as §1

168 GPCRs [8] = biological target: 168 GPCRs (Homo sapiens, UniProt P34998)
Chain of 168 GPCRs (Homo sapiens, UniProt P34998) (P34998 24-415): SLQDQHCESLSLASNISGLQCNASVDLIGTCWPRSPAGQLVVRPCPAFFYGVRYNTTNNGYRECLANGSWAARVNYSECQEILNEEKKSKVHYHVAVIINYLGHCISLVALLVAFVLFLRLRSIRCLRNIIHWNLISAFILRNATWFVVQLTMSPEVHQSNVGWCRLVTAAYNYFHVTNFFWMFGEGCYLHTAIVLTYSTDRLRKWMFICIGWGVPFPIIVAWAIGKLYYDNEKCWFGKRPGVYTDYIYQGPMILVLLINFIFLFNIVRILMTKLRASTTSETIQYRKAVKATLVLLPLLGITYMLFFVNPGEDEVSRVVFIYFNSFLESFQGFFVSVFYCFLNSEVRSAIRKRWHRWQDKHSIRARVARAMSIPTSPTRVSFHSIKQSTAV
Description: as §1

168 GPCRs [9] = biological target: 168 GPCRs (Homo sapiens, UniProt P49238)
Description: as §1

168 GPCRs [10] = biological target: 168 GPCRs (Homo sapiens, UniProt P51677); conditions: CCR3, Agonist
Chain of 168 GPCRs (Homo sapiens, UniProt P51677) (P51677 whole entry): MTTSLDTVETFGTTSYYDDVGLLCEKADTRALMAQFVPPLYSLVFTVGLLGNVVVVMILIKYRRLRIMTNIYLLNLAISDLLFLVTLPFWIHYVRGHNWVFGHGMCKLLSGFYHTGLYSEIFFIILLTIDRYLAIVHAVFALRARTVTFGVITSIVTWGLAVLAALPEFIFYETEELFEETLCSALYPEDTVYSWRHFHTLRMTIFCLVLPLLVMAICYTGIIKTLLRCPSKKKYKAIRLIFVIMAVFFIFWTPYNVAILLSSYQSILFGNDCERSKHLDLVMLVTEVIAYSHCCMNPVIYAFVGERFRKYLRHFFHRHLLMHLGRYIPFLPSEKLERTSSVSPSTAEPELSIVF
Description: as §1

168 GPCRs [11] = biological target: 168 GPCRs (Homo sapiens, UniProt Q01726); conditions: MC1R
Chain of 168 GPCRs (Homo sapiens, UniProt Q01726) (Q01726 whole entry): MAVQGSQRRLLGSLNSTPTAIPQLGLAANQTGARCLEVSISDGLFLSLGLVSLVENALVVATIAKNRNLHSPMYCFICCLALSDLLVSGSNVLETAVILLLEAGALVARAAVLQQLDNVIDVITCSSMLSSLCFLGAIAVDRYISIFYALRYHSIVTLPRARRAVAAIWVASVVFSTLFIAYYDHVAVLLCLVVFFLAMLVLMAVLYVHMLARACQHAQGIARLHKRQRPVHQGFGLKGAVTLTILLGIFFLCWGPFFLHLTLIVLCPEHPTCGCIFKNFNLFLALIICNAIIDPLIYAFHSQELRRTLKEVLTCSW
Description: as §1

168 GPCRs [12] = biological target: 168 GPCRs (Homo sapiens, UniProt Q16602); conditions: Agonist
Chain of 168 GPCRs (Homo sapiens, UniProt Q16602) (Q16602 23-461): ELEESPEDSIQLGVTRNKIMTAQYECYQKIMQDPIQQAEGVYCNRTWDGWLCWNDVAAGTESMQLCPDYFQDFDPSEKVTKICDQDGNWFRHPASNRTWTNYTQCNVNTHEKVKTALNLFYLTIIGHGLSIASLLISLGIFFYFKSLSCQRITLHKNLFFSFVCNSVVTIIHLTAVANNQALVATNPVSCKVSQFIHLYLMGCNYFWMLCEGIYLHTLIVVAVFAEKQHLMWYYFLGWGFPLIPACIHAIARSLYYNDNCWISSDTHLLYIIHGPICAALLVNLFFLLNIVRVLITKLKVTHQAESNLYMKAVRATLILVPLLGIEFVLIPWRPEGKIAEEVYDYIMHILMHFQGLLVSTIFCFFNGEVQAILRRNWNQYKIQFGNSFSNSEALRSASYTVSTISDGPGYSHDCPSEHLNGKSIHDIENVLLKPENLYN
Description: as §1

168 GPCRs [13] = biological target: T1, 168 GPCRs (Homo sapiens, UniProt Q5NUL3)
T1 sequence (Q5NUL3 1-361): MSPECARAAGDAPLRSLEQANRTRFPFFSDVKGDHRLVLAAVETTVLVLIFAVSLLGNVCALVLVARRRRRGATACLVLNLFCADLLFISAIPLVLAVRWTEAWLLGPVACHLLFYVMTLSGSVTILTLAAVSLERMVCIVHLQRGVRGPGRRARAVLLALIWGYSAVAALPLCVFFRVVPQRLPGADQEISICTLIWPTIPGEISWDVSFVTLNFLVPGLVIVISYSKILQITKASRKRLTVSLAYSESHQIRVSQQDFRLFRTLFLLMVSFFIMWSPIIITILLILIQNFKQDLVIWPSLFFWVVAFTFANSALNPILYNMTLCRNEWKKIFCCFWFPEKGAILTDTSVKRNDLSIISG
Description: as §1

168 GPCRs [14] = biological target: 168 GPCRs (Homo sapiens, UniProt Q8TDS5)
Description: as §1

168 GPCRs [15] = biological target: 168 GPCRs (Homo sapiens, UniProt Q92847); conditions: GHSR
Chain of 168 GPCRs (Homo sapiens, UniProt Q92847) (Q92847 whole entry): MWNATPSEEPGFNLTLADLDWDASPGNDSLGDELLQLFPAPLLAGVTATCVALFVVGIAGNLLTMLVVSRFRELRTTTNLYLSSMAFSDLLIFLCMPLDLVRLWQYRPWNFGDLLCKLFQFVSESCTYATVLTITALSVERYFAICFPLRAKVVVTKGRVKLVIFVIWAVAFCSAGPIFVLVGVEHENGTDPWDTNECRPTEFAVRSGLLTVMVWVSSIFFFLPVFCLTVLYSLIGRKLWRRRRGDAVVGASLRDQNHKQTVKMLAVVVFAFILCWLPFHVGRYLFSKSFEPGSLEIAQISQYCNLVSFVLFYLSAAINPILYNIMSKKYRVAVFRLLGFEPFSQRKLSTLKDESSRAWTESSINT
Description: as §1

168 GPCRs [16] = biological target: 168 GPCRs (Homo sapiens, UniProt Q99705)
Chain of 168 GPCRs (Homo sapiens, UniProt Q99705) (Q99705 whole entry): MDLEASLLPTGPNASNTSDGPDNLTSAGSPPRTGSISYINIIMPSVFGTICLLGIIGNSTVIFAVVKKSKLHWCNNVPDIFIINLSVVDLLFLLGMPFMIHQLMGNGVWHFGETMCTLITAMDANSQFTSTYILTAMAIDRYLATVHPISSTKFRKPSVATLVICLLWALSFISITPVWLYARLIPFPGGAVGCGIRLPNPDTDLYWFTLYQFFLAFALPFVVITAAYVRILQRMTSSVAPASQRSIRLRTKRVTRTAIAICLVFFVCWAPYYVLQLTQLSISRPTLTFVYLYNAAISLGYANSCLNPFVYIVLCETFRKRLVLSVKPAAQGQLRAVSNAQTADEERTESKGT
Description: as §1

168 GPCRs [17] = biological target: T2, 168 GPCRs (Homo sapiens, UniProt Q9Y5Y4)
T2 sequence (Q9Y5Y4 1-395): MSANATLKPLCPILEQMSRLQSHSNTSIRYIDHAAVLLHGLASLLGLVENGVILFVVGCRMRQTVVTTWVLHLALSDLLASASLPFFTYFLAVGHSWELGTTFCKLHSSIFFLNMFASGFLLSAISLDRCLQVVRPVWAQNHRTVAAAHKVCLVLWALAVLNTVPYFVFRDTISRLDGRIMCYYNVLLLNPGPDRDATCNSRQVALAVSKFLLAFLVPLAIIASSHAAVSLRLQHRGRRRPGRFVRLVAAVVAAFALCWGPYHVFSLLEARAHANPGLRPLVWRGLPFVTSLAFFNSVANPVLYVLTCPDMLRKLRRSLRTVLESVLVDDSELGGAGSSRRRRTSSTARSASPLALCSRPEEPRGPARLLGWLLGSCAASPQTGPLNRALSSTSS
Description: as §1

## CNC(C)C(=O)c1ccc2c(c1)OCO2 (centres unmarked) [methylone, 3,4-methylenedioxy-N-methylcathinone]
168 GPCRs [1]; HCRTR2, Agonist mode, 10 uM
  activity at 10 µM: 0.2%
168 GPCRs [1]; HCRTR2, Agonist, 1 uM
  activity at 1 µM: 0.2%
168 GPCRs [2]; 1 uM
  activity at 1 µM: -0.2%
168 GPCRs [2]; 10 uM
  activity at 10 µM: 0.2%
168 GPCRs [3]; 1 uM
  activity at 1 µM: -3.8%
168 GPCRs [3]; 10 uM
  activity at 10 µM: -3.8%
168 GPCRs [4]; 1 uM
  activity at 1 µM: -2.5%
168 GPCRs [4]; 10 uM
  activity at 10 µM: 0.1%
168 GPCRs [5]; DRD5, Agonist mode, 10 uM
  activity at 10 µM: -0.2%
168 GPCRs [5]; DRD5, Agonist, 1 uM
  activity at 1 µM: -0.1%
168 GPCRs [6]; Agonist mode, 10 uM
  activity at 10 µM: 8.9%
168 GPCRs [6]; Agonist, 1 uM
  activity at 1 µM: -7.9%
168 GPCRs [7]; Agonist mode, 10 uM
  activity at 10 µM: -2.2%
168 GPCRs [7]; Agonist, 1 uM
  activity at 1 µM: -2%
168 GPCRs [8]; CRHR1, Agonist mode, 10 uM
  activity at 10 µM: 1.1%
168 GPCRs [8]; CRHR1, Agonist, 1 uM
  activity at 1 µM: 1.4%
168 GPCRs [9]; CX3CR1, Agonist mode, 10 uM
  activity at 10 µM: -0.4%
168 GPCRs [9]; CX3CR1, Agonist, 1 uM
  activity at 1 µM: 0%
168 GPCRs [10]; 1 uM
  activity at 1 µM: -6.7%
168 GPCRs [10]; 10 uM
  activity at 10 µM: -7.6%
168 GPCRs [11]; Agonist mode, 10 uM
  activity at 10 µM: -4.4%
168 GPCRs [11]; Agonist, 1 uM
  activity at 1 µM: -2.6%
168 GPCRs [12]; CALCRL-RAMP1, read-out: % Activity
  activity at 1 µM: -2.6%
168 GPCRs [12]; CALCRL-RAMP1
  activity at 10 µM: -0.2%
168 GPCRs [12]; CALCRL-RAMP2
  activity at 1 µM: 0.1%
  activity at 10 µM: 2.8%
168 GPCRs [12]; CALCRL-RAMP3, read-out: % Activity
  activity at 1 µM: -2.2%
168 GPCRs [12]; CALCRL-RAMP3
  activity at 10 µM: 2.2%
168 GPCRs [13]; GPR120, Agonist mode, 10 uM
  activity at 10 µM: -5.8%
168 GPCRs [13]; GPR120, Agonist, 1 uM
  activity at 1 µM: -5.1%
168 GPCRs [14]; OXER1, Agonist mode, 10 uM
  activity at 10 µM: -3.7%
168 GPCRs [14]; OXER1, Agonist, 1 uM
  activity at 1 µM: 3.2%
168 GPCRs [15]; Agonist mode, 10 uM
  activity at 10 µM: -7.2%
168 GPCRs [15]; Agonist, 1 uM
  activity at 1 µM: -6.6%
168 GPCRs [16]; MCHR1, Agonist mode, 10 uM
  activity at 10 µM: 3.1%
168 GPCRs [16]; MCHR1, Agonist, 1 uM
  activity at 1 µM: 3.9%
168 GPCRs [17]; CRTH2, Agonist mode, 10 uM
  activity at 10 µM: -5%
168 GPCRs [17]; CRTH2, Agonist, 1 uM
  activity at 1 µM: -5.7%
